The values that follow come from patent US11708348B2, “Protease inhibitors for treatment of coronavirus infections” (The Scripps Research Institute, priority 2021, dated 2023).

SMILES strings stand for the structures. Where only a bound is given, the exact number is not on record here.

The test system of the first assay is SARS-CoV-2 strain USA-WA1/2020. In words: microbe, parasite or virus in culture. The format is cell-based. The conditions noted are these: Severe acute respiratory syndrome coronavirus 2, HeLa-ACE2, 24 h, HeLa-ACE2 cells, SARS-CoV-2 infection, 24 h; bound printed in cell; read-out: EC50, uM (Hela).
Turning to `CC[C@](C)(O)C(=O)N1C[C@H]2[C@@H]([C@H]1C(=O)N[C@@H](C[C@@H]1CCNC1=O)C(=O)COC(F)(F)F)C2(C)C` [Compound 367, (1R,2S,5S)-3-((S)-2-hydroxy-2-methylbutanoyl)-6,6-dimethyl-N-((S)-3-oxo-1-((S)-2-oxopyrrolidin-3-yl)-4-(trifluoromethoxy)butan-2-yl)-3-azabicyclo[3.1.0]-hexane-2-carboxamide], the EC50 was over 1 µM.

Still in this assay, the particulars now being: Severe acute respiratory syndrome coronavirus 2, HeLa-ACE2, 24 h, HeLa-ACE2 cells, SARS-CoV-2 infection, 24 h; class symbols; read-out: EC50, uM (Hela).
`CC(C)(C)CC(O)C(=O)N1C[C@H]2[C@@H]([C@H]1C(=O)N[C@@H](C[C@@H]1CCNC1=O)C(=O)COC(F)(F)F)C2(C)C` (stereo partly drawn) [Compound 347, (1R,2S,5S)-3-(2-hydroxy-4,4-dimethylpentanoyl)-6,6-dimethyl-N-((S)-3-oxo-1-((S)-2-oxopyrrolidin-3-yl)-4-(trifluoromethoxy)butan-2-yl)-3-azabicyclo-[3.1.0]hexane-2-carboxamide]: the EC50 is under 0.05 µM.

As for `CC(C)(C)CC(O)C(=O)N1C[C@@H]2CCC[C@@H]2[C@H]1C(=O)N[C@@H](C[C@@H]1CCNC1=O)C(=O)COC(F)(F)F` (stereo partly drawn) [Compound 348, (1S,3aR,6aS)-2-(2-hydroxy-4,4-dimethylpentanoyl)-N-((S)-3-oxo-1-((S)-2-oxopyrrolidin-3-yl)-4-(trifluoromethoxy)butan-2-yl)octahydrocyclo-penta[c]pyrrole-1-carboxamide], the half-maximal effective concentration (EC50) was under 0.05 µM.

For `CC(C)(C)C[C@H](O)C(=O)N1CC2(CC2)C[C@H]1C(=O)N[C@@H](C[C@@H]1CCNC1=O)C(=O)COC(F)(F)F` [Compound 349, (S)-5-((S)-2-hydroxy-4,4-dimethylpentanoyl)-N-((S)-3-oxo-1-((S)-2-oxopyrrolidin-3-yl)-4-(trifluoromethoxy)butan-2-yl)-5-azaspiro[2.4]heptane-6-carboxamide], the concentration giving a half-maximal response (EC50) was under 0.05 µM.

In the case of `CC(C)(F)C[C@H](O)C(=O)N1CC2(CC2)C[C@H]1C(=O)N[C@@H](C[C@@H]1CCNC1=O)C(=O)COC(F)(F)F` [Compound 350, (S)-5-((S)-4-fluoro-2-hydroxy-4-methylpentanoyl)-N-((S)-3-oxo-1-((S)-2-oxopyrrolidin-3-yl)-4-(trifluoromethoxy)butan-2-yl)-5-azaspiro[2.4]-heptane-6-carboxamide], the half-maximal effective concentration (EC50) lay within 0.05 to 0.2 µM.

With `CC(C)(O)C(=O)N1C[C@H]2[C@@H]([C@H]1C(=O)N[C@@H](C[C@@H]1CCNC1=O)C(=O)COC(F)(F)F)C2(C)C` [Compound 351, (1R,2S,5S)-3-(2-hydroxy-2-methylpropanoyl)-6,6-dimethyl-N-((S)-3-oxo-1-((S)-2-oxopyrrolidin-3-yl)-4-(trifluoromethoxy)butan-2-yl)-3-azabicyclo-[3.1.0]hexane-2-carboxamide], the half-maximal effective concentration (EC50) lay in the range of 0.05 to 0.2 µM.

As to `CC(C)(O)C(=O)N1C[C@@H]2CCC[C@@H]2[C@H]1C(=O)N[C@@H](C[C@@H]1CCNC1=O)C(=O)COC(F)(F)F` [Compound 352, (1S,3aR,6aS)-2-(2-hydroxy-2-methylpropanoyl)-N-((S)-3-oxo-1-((S)-2-oxopyrrolidin-3-yl)-4-(trifluoromethoxy)butan-2-yl)octahydrocyclo-penta[c]pyrrole-1-carboxamide], the EC50 was in the range of 0.05 to 0.2 µM.

Consider `CC(C)C[C@H](NC(=O)C(C)(C)O)C(=O)N[C@@H](C[C@@H]1CCNC1=O)C(=O)COC(F)(F)F` [Compound 353, (S)-2-(2-hydroxy-2-methylpropanamido)-4-methyl-N-((S)-3-oxo-1-((S)-2-oxopyrrolidin-3-yl)-4-(trifluoromethoxy)butan-2-yl)pentanamide], for which the EC50 fell in the range of 0.05 to 0.2 µM.

Regarding `CC(C)(O)C(=O)N1CC2(CC2)C[C@H]1C(=O)N[C@@H](C[C@@H]1CCNC1=O)C(=O)COC(F)(F)F` [Compound 354, (S)-5-(2-hydroxy-2-methylpropanoyl)-N-((S)-3-oxo-1-((S)-2-oxopyrrolidin-3-yl)-4-(trifluoromethoxy)butan-2-yl)-5-azaspiro[2.4]-heptane-6-carboxamide], the EC50 fell in the range of 0.05 to 0.2 µM.

Turning to `CC(C)C[C@H](NC(=O)[C@H](O)C(C)C)C(=O)N[C@@H](C[C@@H]1CCNC1=O)C(=O)COC(F)(F)F` [Compound 355, (S)-2-((R)-2-hydroxy-3-methylbutanamido)-4-methyl-N-((S)-3-oxo-1-((S)-2-oxopyrrolidin-3-yl)-4-(trifluoromethoxy)butan-2-yl)pentanamide], the EC50 is 0.05 to 0.2 µM.

`CC(C)[C@@H](O)C(=O)N1CC2(CC2)C[C@H]1C(=O)N[C@@H](C[C@@H]1CCNC1=O)C(=O)COC(F)(F)F` [Compound 356, (S)-5-((R)-2-hydroxy-3-methylbutanoyl)-N-((S)-3-oxo-1-((S)-2-oxopyrrolidin-3-yl)-4-(trifluoromethoxy)butan-2-yl)-5-azaspiro[2.4]heptane-6-carboxamide]: the half-maximal effective concentration (EC50) was 0.05 to 0.2 µM.

With `CC(C)[C@@H](O)C(=O)N1C[C@H]2[C@@H]([C@H]1C(=O)N[C@@H](C[C@@H]1CCNC1=O)C(=O)COC(F)(F)F)C2(C)C` [Compound 357, (1R,2S,5S)-3-((R)-2-hydroxy-3-methylbutanoyl)-6,6-dimethyl-N-((S)-3-oxo-1-((S)-2-oxopyrrolidin-3-yl)-4-(trifluoromethoxy)butan-2-yl)-3-azabicyclo-[3.1.0]hexane-2-carboxamide], the 50% effective concentration (EC50) is 0.05 to 0.2 µM.

For the molecule `CC(C)[C@H](O)C(=O)N1CC2(CC2)C[C@H]1C(=O)N[C@@H](C[C@@H]1CCNC1=O)C(=O)COC(F)(F)F` [Compound 358, (S)-5-((S)-2-hydroxy-3-methylbutanoyl)-N-((S)-3-oxo-1-((S)-2-oxopyrrolidin-3-yl)-4-(trifluoromethoxy)butan-2-yl)-5-azaspiro-[2.4]heptane-6-carboxamide], the EC50 lay within 0.05 to 0.2 µM.

Regarding `CC(C)[C@@H](O)C(=O)N1C[C@@H]2CCC[C@@H]2[C@H]1C(=O)N[C@@H](C[C@@H]1CCNC1=O)C(=O)COC(F)(F)F` [Compound 359, (1S,3aR,6aS)-2-((R)-2-hydroxy-3-methylbutanoyl)-N-((S)-3-oxo-1-((S)-2-oxopyrrolidin-3-yl)-4-(trifluoromethoxy)butan-2-yl)octahydrocyclo-penta[c]pyrrole-1-carboxamide], the EC50 is 0.05 to 0.2 µM.

Take `CC(C)CC(C)(O)C(=O)N1CC2(CC2)C[C@H]1C(=O)N[C@@H](C[C@@H]1CCNC1=O)C(=O)COC(F)(F)F` (stereo partly drawn) [Compound 360, (6S)-5-(2-hydroxy-2,4-dimethylpentanoyl)-N-((S)-3-oxo-1-((S)-2-oxopyrrolidin-3-yl)-4-(trifluoromethoxy)butan-2-yl)-5-azaspiro[2.4]-heptane-6-carboxamide]: the concentration for a half-maximal effect (EC50) is under 0.05 µM.

With `CC(C)C[C@@H](O)C(=O)N1C[C@H]2[C@@H]([C@H]1C(=O)N[C@@H](C[C@@H]1CCNC1=O)C(=O)COC(F)(F)F)C2(C)C` [Compound 361, (1R,2S,5S)-3-((R)-2-hydroxy-4-methylpentanoyl)-6,6-dimethyl-N-((S)-3-oxo-1-((S)-2-oxopyrrolidin-3-yl)-4-(trifluoromethoxy)butan-2-yl)-3-azabicyclo-[3.1.0]hexane-2-carboxamide], the EC50 was under 0.05 µM.

Turning to `CC(C)C[C@@H](O)C(=O)N1C[C@@H]2CCC[C@@H]2[C@H]1C(=O)N[C@@H](C[C@@H]1CCNC1=O)C(=O)COC(F)(F)F` [Compound 363, (1S,3aR,6aS)-2-((R)-2-hydroxy-4-methylpentanoyl)-N-((S)-3-oxo-1-((S)-2-oxopyrrolidin-3-yl)-4-(trifluoromethoxy)butan-2-yl)octahydrocyclo-penta[c]pyrrole-1-carboxamide], the half-maximal effective concentration (EC50) was under 0.05 µM.

As to `C[C@@](O)(C(=O)N1CC2(CC2)C[C@H]1C(=O)N[C@@H](C[C@@H]1CCNC1=O)C(=O)COC(F)(F)F)c1ccccc1` [Compound 364, (S)-5-((S)-2-hydroxy-2-phenylpropanoyl)-N-((S)-3-oxo-1-((S)-2-oxopyrrolidin-3-yl)-4-(trifluoromethoxy)butan-2-yl)-5-azaspiro[2.4]-heptane-6-carboxamide], the concentration for a half-maximal effect (EC50) is under 0.05 µM.

In the case of `C[C@](O)(C(=O)N1CC2(CC2)C[C@H]1C(=O)N[C@@H](C[C@@H]1CCNC1=O)C(=O)COC(F)(F)F)c1ccccc1` [Compound 365, (S)-5-((R)-2-hydroxy-2-phenylpropanoyl)-N-((S)-3-oxo-1-((S)-2-oxopyrrolidin-3-yl)-4-(trifluoromethoxy)butan-2-yl)-5-azaspiro[2.4]-heptane-6-carboxamide], the EC50 was under 0.05 µM.

In the case of `CC[C@@H](O)C(=O)N1C[C@H]2[C@@H]([C@H]1C(=O)N[C@@H](C[C@@H]1CCNC1=O)C(=O)COC(F)(F)F)C2(C)C` [Compound 368, (1R,2S,5S)-3-((R)-2-hydroxybutanoyl)-6,6-dimethyl-N-((S)-3-oxo-1-((S)-2-oxopyrrolidin-3-yl)-4-(trifluoromethoxy)butan-2-yl)-3-azabicyclo[3.1.0]= hexane-2-carboxamide], the concentration for a half-maximal effect (EC50) was 0.05 to 0.2 µM.

Regarding `CC[C@@H](O)C(=O)N[C@@H](CC(C)C)C(=O)N[C@@H](C[C@@H]1CCNC1=O)C(=O)COC(F)(F)F` [Compound 369, (S)-2-((R)-2-hydroxybutanamido)-4-methyl-N-((S)-3-oxo-1-((S)-2-oxopyrrolidin-3-yl)-4-(trifluoromethoxy)butan-2-yl)pentanamide], the EC50 lay within 0.05 to 0.2 µM.

As to `CC[C@H](O)C(=O)N1C[C@H]2[C@@H]([C@H]1C(=O)N[C@@H](C[C@@H]1CCNC1=O)C(=O)COC(F)(F)F)C2(C)C` [Compound 370, (1R,2S,5S)-3-((S)-2-hydroxybutanoyl)-6,6-dimethyl-N-((S)-3-oxo-1-((S)-2-oxopyrrolidin-3-yl)-4-(trifluoromethoxy)butan-2-yl)-3-azabicyclo[3.1.0]-hexane-2-carboxamide], the half-maximal effective concentration (EC50) lay within 0.05 to 0.2 µM.

Turning to `CC[C@@H](O)C(=O)N1CC2(CC2)C[C@H]1C(=O)N[C@@H](C[C@@H]1CCNC1=O)C(=O)COC(F)(F)F` [Compound 371, (S)-5-((R)-2-hydroxybutanoyl)-N-((S)-3-oxo-1-((S)-2-oxopyrrolidin-3-yl)-4-(trifluoromethoxy)butan-2-yl)-5-azaspiro[2.4]heptane-6-carboxamide], the EC50 fell in the range of 0.05 to 0.2 µM.
